Measured values from publication PMC12598805, “Crystal Structure–Activity Relationship of Some MeO Phenylacrylonitriles: Dual Antimicrobial–Cytotoxic Effects and in Silico Perspectives” (ChemistryOpen, 2025).
Converted amounts (≈) assume the structure as drawn.

Legend:
[1] = tested on: Staphylococcus aureus (ATCC 29213); experiment: Agar diffusion, zone of inhibition; assay type: cell-based; conditions: S.aureus, compounds at 50 mg mL^−1; for zone of inhibition at 50 mg/mL: Staphylococcus aureus, ATCC29213
Description: The antibacterial and antifungal activities were reported utilizing the method described by the Clinical & Laboratory Standards Institute.^[ [31], [32] ^] Agar diffusion method was used to determine the antimicrobial activity of the synthesized substances. The media used were mueller hinton agar (MHA) for bacteria and sabouraud‐dextrose agar (SDA) for fungi (Merck), as recommended by the manufacturer.
The synthesized compounds were initially investigated for their antimicrobial activity to elucidate the potential therapeutic utility against various pathogenic microbes using the agar plate diffusion method. The compounds were tested at a concentration of 50 mg mL^−1, and the antibiotics (ampicillin, kanamycin, and amphotericin B) were used at 5 mg mL^−1. […] K.pneumoniae and B.cereus were resistant to ampicillin, while they were susceptible to kanamycin with inhibition values of 30 and 26 mm, respectively. No antimicrobial activity of the compounds was observed against E.faecalis, S.typhimurium, K.pneumoniae, and for the fungus compared to Amphotericin B (20 mm). […]
Staphylococcus aureus (ATCC 29213) […]
ATCC: American Type Culture Collection; NRRL: Northern Regional Research Laboratory The compounds 2(a-c) obtained could only be completely solubilised with dimethyl sulphoxide (DMSO) and the highest possible stock solutions of 50 mg.mL-1 were prepared. To these wells 50 μl of the previously prepared substances were transferred using sterile micropipette tips. For comparison, Ampicillin and kanamycin antibiotics for bacteria and Amphotericin B antibiotics for fungus were used as positive controls and DMSO was used as negative control. The prepared petri plates were kept at +4°C for about 1 hour and then the bacterial cultures were incubated at 37°C for 18-24 hours and mould cultures at 27-30°C for 48-72 hours. The zones formed were measured millimetrically with callipers. The experiments were performed with three repetitions. […]

[2] = tested on: Pseudomonas aeruginosa (ATCC 27853); experiment: Broth microdilution MIC; assay type: cell-based; conditions: ATCC27853, P.aeruginosa
Method: Pseudomonas aeruginosa (ATCC 27853) […]
ATCC: American Type Culture Collection; NRRL: Northern Regional Research Laboratory The compounds 2(a-c) obtained could only be completely solubilised with dimethyl sulphoxide (DMSO) and the highest possible stock solutions of 50 mg.mL-1 were prepared. […]
3.1. Determination of Minimum Inhibition Concentration (MIC)
The minimum inhibition concentration (MIC) values of the compounds 2(a-c) against the test bacteria used in the study were determined according to the broth microdilution method.[1-2] MHB or SDB was used as test medium and bacterial and yeast suspensions were prepared at 0.5 Mc Farland concentration for each test bacteria. Double layer serial dilutions were prepared in "U" type 96-well microtiter plates. Medium+bacteria suspensions containing only medium in the first row, medium+bacteria in the second row and the final concentrations of the synthesised substances in the other rows between 25 mg.mL-1 and […] were added to the wells with a final volume of 200
μL. Ampicillin, Kanamycin and Amphotericin B standard antibiotics were used as positive controls.
Bacteria were incubated at 37±0.1 °C and C. albicans at 30±0.1 °C for 24-48 hours and the lowest concentration without growth was determined as MIC. Tests were performed in two parallel runs and mean values were given as a result. […]

[3] = tested on: mouse fibroblast cells (L929, CCL‐1); experiment: Cytotoxicity on healthy cells, CCK8 cell viability; assay type: cell-based
Description: (§1) We investigated the cytotoxic effects of acrylonitrile derivatives 2(a–c) on human lung carcinoma (A549, CCL‐185) cells purchased from American Culture Collection and human breast carcinoma (MCF‐7) cells purchased from Republic of Turkey Ministry of Agriculture and Forestry Şap Institute, (HUKUK, 00092502), In addition, mouse fibroblast cells (L929, CCL‐1) purchased from American Culture Collection were used to observe the effects of the compounds on healthy cells. In 25 T Flask, A549 cells were grown in dulbecco's modified eagle's medium, MCF‐7, and L929 cells were grown in eagle's minimum essential medium (EMEM), 10% fetal bovine serum and 1% Penicillin‐Streptomycin at 37 °C in a 5% CO2 and 100% humidified incubator. Cell proliferation was checked every day. Cells were taken into the experiment when the cell density reached 70% to 80%. (See Supporting Information for experimental preparation of biological studies).
(§2) The compounds 2a, 2b, and 2c were dissolved in 99.8% Dimethyl sulfoxide (DMSO) respectively, as
(§3) 10 mM main stock. To prepare the doses of acrylonitrile compounds used in the experiment to be
(§4) applied to the cells, five different concentrations of 31.25; 62.5; 125; 250 and 500 μM were prepared
(§5) by diluting the main stock solutions (10 mM) with the medium selected according to the cells. 5-
(§6) Fluorouracil (5-FU) was selected as a positive control in the study. After the 5-FU main stock solution
(§7) was dissolved with DMSO to be 10 mM, the concentrations to be used were diluted with the selected
(§8) media and made ready for the experimental plan. The concentrations used for 5-FU were prepared in
(§9) the same doses used for acrylonitrile derivatives. For the negative control group, groups containing
(§10) only media and no substance were used. Prepared acrylonitrile compounds and 5-FU concentrations
(§11) were added to the wells in three replicates for each dose, and their effects on cell viability at 24 and 48
(§12) Trypan blue solution (Gibco, 1525061) was used to distinguish between living and dead cells in the
(§13) study. Trypan blue passes uncontrollably through the membrane of dead cells that have lost their cell
(§14) membrane integrity and stains the cell blue. Living cells, on the other hand, are not stained because
(§15) Live cell counts were performed using trypan blue using a
(§16) cell counter (Logos Luna II).
(§17) In order to detach the cells adhering to the flasks from the bottom, 500 μL of 0.25% Trypsin-EDTA
(§18) (Gibco, 15400054) solution was added and treated for five minutes.
(§19) detach from the bottom under an inverted microscope (Zeiss Primovert, Germany), medium containing
(§20) 10% FBS was added. After centrifugation at 300 g for 5 minutes and discarding the medium, 1 mL of
(§21) medium was added and the cells were seeded into 96-well culture dishes as 1x10^4 cells in 100 μL per
(§22) Cell Counting Kit 8 (CCK8; Medchem, 146436) was used to determine cell viability. After adding 20 μL
(§23) of CCK8 solution to each well in the dark, 96-well culture dishes were wrapped with aluminum foil and
(§24) kept in a CO2 incubator at 37 °C for 2 hr. Then, it was automatically read with a microplate reader
(§25) (Chromate) at 450 and 630 nm wavelengths. The following formula was used to determine cell
(§26) % Viability = (Sample Well−Blank) (Negative Control−Blank)×100 (1)
(§27) The half-maximal inhibitory concentration (IC50) was calculated as 50% cell death causing dose
(§28) compared to the control group. All data are given as the mean percent fraction of control ± SEM.
(§29) Statistical analysis was done by one-way analysis of variance (ANOVA), followed by Tukey’s multiple
(§30) comparison tests. IBM SPSS Statistics 22 was used to utilize statistical analysis. […]

[4] = Cytotoxicity on healthy cells, CCK8 cell viability; assay type: cell-based, mouse; conditions: mouse, L929 mouse fibroblast cells, read-out: Cytotoxic activity IC50; for IC50 at 24 h: L929, 24 h; for IC50 at 48 h: L929, 48 h
Description: as §1, §2, §3, §4, §5, §6, §7, §8, §9, §10, §11, §12, §13, §14, §15, §16, §17, §18, §19, §20, §21, §22, §23, §24, §25, §26, §27, §28, §29, §30

| SMILES | zone of inhibition [1] [mm] | zone of inhibition at 50 mg/mL [1] [mm] | MIC [2] [mg/mL] | decrease in cell viability ([3]; L929, 24 h, 31.25 μM) [%] | decrease in cell viability ([3]; L929, 24 h, 62.5 μM) [%] | decrease in cell viability ([3]; L929, 24 h, 125 μM) [%] | decrease in cell viability ([3]; L929, 24 h, 250 μM) [%] | decrease in cell viability ([3]; L929, 24 h, 500 μM) [%] | decrease in cell viability ([3]; L929, 48 h, 31.25 μM) [%] | decrease in cell viability ([3]; L929, 48 h, 62.5 μM) [%] | decrease in cell viability ([3]; L929, 48 h, 125 μM) [%] | decrease in cell viability ([3]; L929, 48 h, 250 μM) [%] | decrease in cell viability ([3]; L929, 48 h, 500 μM) [%] | IC50 at 24 h [4] [µM] | IC50 at 48 h [4] [µM] | IC50 ([3]; L929, 24 h, read-out: Cytotoxic activity IC50) [µM] |
| --- | --- | --- | --- | --- | --- | --- | --- | --- | --- | --- | --- | --- | --- | --- | --- | --- |
| COc1ccc(C=C(C#N)c2ccccc2)cc1 [2a, 3‐(4‐methoxyphenyl)‐2‐phenylacrylonitrile] | 14 ± 0.71 | 14 | 5 (≈ 21.3 mM) | 13 | 19 | 16 | 35 | 73 | 52 | 53 | 55 | 54 | 87 | 351 | < 31.2 | – |
| COc1ccc(/C=C(\C#N)c2ccc(F)cc2)cc1 [2b] | 13 ± 0 | 13 | 12.5 (≈ 49.4 mM) | 45 | 44 | 43 | 50 | 75 | 52 | 54 | 53 | 53 | 80 | < 250 | < 31.2 | 250 |
| COc1ccc(/C=C(\C#N)c2cc(C(F)(F)F)cc(C(F)(F)F)c2)cc1 [2c] | 14 ± 1.41 | 14 | 12.5 (≈ 33.7 mM) | 8 | 10 | 19 | 12 | 71 | 14 | 16 | 20 | 24 | 80 | 410 | 391 | – |
